Reference: patent publication US10221190B2, “Biguanide compounds and use thereof” (IMMUNOMET THERAPEUTICS INC., priority 2013, dated 2019)
pIC50: −log10 of the molar value.

Columns and labels:
SK-MEL-28 cells = test: Inhibitory activity against cancer cells (MTT cell viability), SK-MEL-28; type: cell-based; details: Homo sapiens, SK-MEL-28, 48 hr incubation
Method: (§1) The inhibitory activities of biguanide derivatives against cancer cells were evaluated in the cell line SK-MEL-28 derived from human Melanoma cell, Miapaka-2 cell line derived from human pancreatic cancer cell and HCT116 cell line derived from human colorectal cancer cell by measuring the concentration that inhibits 50% of the growth of the cell lines (the half maximal inhibitory concentration, IC50).
(§2) Firstly, SK-MEL-28 cells were grown to be density of 5,000 cells/well in RPMI-1640 media supplemented with 10% (v/v) bovine calf serum, on 96-well plates for 16 hr. To measure the IC50 of each compound, the cells were incubated for 48 hr with the 100 mM PBS stock compounds at an amount of 10 mM, 1 mM, 200 uM, 40 uM, 8 uM, 1.6 uM, 0.32 uM or 0.064 uM; 50 mM PBS and EtOH stock compounds at an amount of 1 mM, 200 uM, 40 uM, 8 uM, 1.6 uM, 0.32 uM and 0.064 uM; and 50 mM DMSO stock compounds at an amount of 100 uM, 25 uM, 6.25 uM, 1.56 uM, 0.39 uM, 0.10 uM and 0.02 uM, respectively. To test the viable cells after incubation with each compound, the cell cultures were incubated additionally for 2 hr in the presence of MTT. The produced formazan crystals were dissolved with dimethyl sulfoxide and then measured by detecting the absorbance at 560 nm.
(§3) After the 48 hr incubation, the viable cells were counted on the well plates treated with the compounds of the Examples relative to the count of the viable cells on the non-treated plates, and then was represented as the cell viability (%). By using the cell viability (%) result, the cell viability curve was plotted, and IC50 was calculated from the curve to evaluate the inhibitory activity against cancer cells.

HCT116 cell = test: Inhibitory activity against cancer cells (MTT cell viability), HCT116; type: cell-based, human; details: HCT 116, 48 hr incubation
Method: as §1, §2, §3
(§4) The inhibitory activities of biguanide derivatives against cancer cells of Miapaca-2 cell and HCT116 cell were evaluated according to the substantially same method as described in SK-MEL-28 cell, except that DMEM media supplemented with 10% (v/v) bovine calf serum was used instead of RPMI-1640 media supplemented with 10% (v/v) bovine calf serum for SK-MEL-28 cell.

Miapaca-2 cell = test: Inhibitory activity against cancer cells (MTT cell viability), Miapaca-2; type: cell-based; details: Homo sapiens, MIA PaCa-2, Miapaca-2, 48 hr incubation
Method: as §1, §2, §3, §4

Row | Compound | pIC50 (HCT116 cell; Homo sapiens) | also measured
1 | N=C(NC(=N)N1CCCC1)Nc1ccc(SCC(=O)N2CCCCC2)cc1 [Example 28, N—(N-(4-(2-oxo-2-(piperidin-1-yl)ethylthio)phenyl)carbamimidoyl)pyrrolidine-1-carboximidamide] | < 4.00 | pIC50 (SK-MEL-28 cells): 3.75; pIC50 (Miapaca-2 cell): 3.68
2 | N=C(NC(=N)N1CCCC1)Nc1ccc(C(N)=O)cc1 [Example 23, N1-pyrrolidine-N5-4-benzamide biguanide] | < 4.00 | pIC50 (SK-MEL-28 cells): < 3.00; pIC50 (Miapaca-2 cell): 2.63
3 | CS(=O)(=O)C1CCN(C(=N)NC(=N)Nc2ccc(OC(F)(F)F)cc2)CC1 [Example 53, N1-4-(methylsulfonyl)piperidine-N5-(4-trifluoromethoxy)phenyl biguanide] | 3.74 | pIC50 (SK-MEL-28 cells): < 4.00; pIC50 (Miapaca-2 cell): < 4.00
4 | [H]/N=C(/N)N/C(=N/[H])NCCc1ccccc1 [Phenformin, phenformin, reference compound] | 4.90 | pIC50 (SK-MEL-28 cells): 3.58; pIC50 (Miapaca-2 cell): 3.93
5 | CN1CCN(C(=N)NC(=N)Nc2cccc(Br)c2)CC1 [Example 32, N1-4-methyl piperazine-N5-(3-bromo)phenyl biguanide] | 4.04 | 
6 | CC1CC(C)CN(C(=N)NC(=N)Nc2ccc(CNC(=O)c3ccccc3-c3c4ccc(=O)cc-4oc4cc(O)ccc34)cc2)C1 (stereo not drawn) [Example 85, N-(4-(3-((3,5-dimethylpiperidin-1-yl)(imino)methyl)guanidino)benzyl)-2-(6-hydroxy-3-oxo-3H-xanthen-9-yl)benzamide] | 4.54 | 
7 | N=C(NCc1ccc2c(c1)OCO2)NC(=N)N1CCCC1 [Example 1, N1-pyrrolidine-N5-(benzo[1,3]dioxol-5-ylmethyl) biguanide] | < 4.00 | pIC50 (SK-MEL-28 cells): 3.97; pIC50 (Miapaca-2 cell): 4.44
8 | N=C(N)NC(=N)Nc1ccc(Cl)cc1Cl [Example 54] | < 4.00 | 
9 | CCNC(=O)c1ccc(CNC(=N)NC(=N)N2CCCC2)cc1 [Example 27, N-ethyl-4-((3-(imino(pyrrolidin-1-yl)methyl)guanidino)methyl)benzamide] | < 4.00 | 
10 | N=C(NC(=N)Nc1cnccn1)Nc1ccc(OC(F)(F)F)cc1 [Example 66, N1-2-pyrazine-N5-(4-trifluoromethoxy)phenyl biguanide] | < 4.00 | 
11 | CC1CCCN(C(=N)NC(=N)Nc2ccc(CCN)cc2)C1 (stereo not drawn) [Example 50] | < 4.00 | 
12 | CC1CCCCN1C(=N)NC(=N)Nc1ccc(CCN)cc1 (stereo not drawn) [Example 48] | < 4.00 | 
13 | CN1CCN(C(=N)NC(=N)Nc2ccc(F)c(C(F)(F)F)c2)CC1 [Example 35, N1-4-methyl piperazine-N5-(4-fluoro-3-trifluoromethyl)phenyl biguanide] | 4.49 | 
14 | C[C@@H]1CCC[C@H](C)N1C(=N)NC(=N)Nc1ccc(CCNC(=O)CCCCC2CC3NC(=O)NC3S2)cc1 (stereo partly drawn) [Example 81, N-(4-(3-(((2R,6S)-2,6-dimethylpiperidin-1-yl)(imino)methyl)guanidino)phenethyl)-5-(2-oxohexahydro-1H-thieno[2,3-d]imidazol-5-yl)pentanamide] | < 4.00 | 
15 | N=C(NC(=N)Nc1ccc(F)c(C(F)(F)F)c1)Nc1cccnc1 [Example 65, N1-3-pyridine-N5-(4-fluoro-3-trifluoromethyl)phenyl biguanide] | < 4.00 | 
16 | N=C(NC(=N)N1CCCC1)Nc1ccc(CCC(=O)N2CCCCC2)cc1 [Example 26, N—(N-(4-(3-oxo-3-(piperidin-1-yl)propyl)phenyl)carbamimidoyl)pyrrolidine-1-carboximidamide] | < 4.00 | 
17 | CN1CCN(C(=N)NC(=N)Nc2ccc(C(F)(F)F)c(F)c2)CC1 [Example 44, N1-4-methyl piperazine-N5-(3-fluoro-4-trifluoromethyl)phenyl biguanide] | 4.37 | 
18 | N=C(NC(=N)N1CCc2ccccc21)Nc1ccc(OC(F)(F)F)cc1 [Example 88, N—(N-(4-(trifluoromethoxy)phenyl)carbamimidoyl)indoline-1-carboximidamide] | 5.13 | 
19 | N=C(NC(=N)N1CC[C@@H](O)C1)Nc1ccc(OC(F)(F)F)cc1 [Example 19, N1-(R)-3-hydroxy pyrrolidine-N5-(4-trifluoromethoxy)phenyl biguanide] | < 4.00 | 

Row | Compound | pIC50 (HCT116 cell; Homo sapiens) | also measured
20 | N1-3-phenoxyphenyl-N5-(4-trifluoromethoxy)phenyl biguanide [Example 76] |  | pIC50 (HCT116 cell): 5.51
21 | CN1CCN(C(=N)NC(=N)NCc2cccc(Br)c2)CC1 [Example 34, N1-4-methyl piperazine-N5-(3-bromo)benzyl biguanide] | < 4.00 | 
22 | CN1CCN(C(=N)NC(=N)NCc2ccc(OC(F)(F)F)c(F)c2)CC1 [Example 43, N1-4-methyl piperazine-N5-(3-fluoro-4-trifluoromethoxy)benzyl biguanide] | < 4.00 | 
23 | CC1CCCN(C(=N)NC(=N)Nc2ccc(CNC(=O)c3ccccc3-c3c4ccc(=O)cc-4oc4cc(O)ccc34)cc2)C1 (stereo not drawn) [Example 86, 2-(6-hydroxy-3-oxo-3H-xanthene-9-yl)-N-(4-(3-(imino(3-methylpiperidine-1-yl)methyl)guanidino)benzyl)benzamide] | 4.27 | 
24 | CN(C(=N)NC(=N)N1CCCC1)c1c(F)cccc1F [Example 4, N1-pyrrolidine-N5-(2,6-difluoro-N5-methyl)phenyl biguanide] | < 4.00 | 
25 | N=C(NC(=N)N1CCCC1)Nc1ccc(CCNC(=O)CCCCC2CC3NC(=O)NC3S2)cc1 (stereo not drawn) [Example 77, N-(4-(3-(imino(pyrrolidin-1-yl)methyl)guanidino)phenethyl)-5-(2-oxohexahydro-1H-thieno[2,3-d]imidazol-5-yl)pentaneamide] | < 4.00 | 
26 | CC(C)(NC(=N)NC(=N)N1CCCC1)c1ccccc1 [Example 13, N1-pyrrolidine-N5-(2-phenylpropane-2-yl) biguanide] | < 4.00 | 
27 | N=C(NC(=N)Nc1ccc(-c2ccccc2)cc1)Nc1ccc(OC(F)(F)F)cc1 [Example 75, N1-(4-trifluoromethoxy)phenyl-N5-(N-biphenyl-4-yl) biguanide] | 5.09 | 
28 | N=C(NC(=N)N1CCCC1)Nc1ccc(CNC(=O)c2ccccc2-c2c3ccc(=O)cc-3oc3cc(O)ccc23)cc1 [Example 83, 2-(6-hydroxy-3-oxo-3H-xanthen-9-yl)-N-(4-(3-(imino(pyrrolidin-1-yl)methyl)guanidino)benzyl)benzamide] | 4.25 | 
29 | CN1CCN(C(=N)NC(=N)NCc2ccc(C(F)(F)F)c(F)c2)CC1 [Example 42, N1-4-methyl piperazine-N5-(3-fluoro-4-trifluoromethyl)benzyl biguanide] | < 4.00 | 
30 | N=C(NC(=N)N1CC[C@H](O)C1)Nc1ccc(SCC(=O)N2CCCCC2)cc1 [Example 29, (S)-3-hydroxy-N—(N-(4-(2-oxo-2-(piperidin-1-yl)ethylthio)phenyl)carbamimidoyl)pyrrolidine-1-carboximidamide] | < 4.00 | 
31 | N=C(NCc1ccc(C(=O)N2CCCCC2)cc1)NC(=N)N1CCCC1 [Example 25, N—(N-(4-(piperidine-1-carbonyl)benzyl)carbamimidoyl)pyrrolidine-1-carboximidamide] | < 4.00 | 
32 | CCN1CCN(C(=N)NC(=N)Nc2ccc(OC(F)(F)F)cc2)CC1 [Example 45, N1-4-ethyl piperazine-N5-(4-trifluoromethoxy)phenyl biguanide] | 4.47 | 
33 | N=C(NC(=N)N1CC=CCC1)Nc1ccc(CCNC(=O)CCCCC2CC3NC(=O)NC3S2)cc1 (stereo not drawn) [Example 80, N-(4-(3-((5,6-dihydropyridin-1(2H)-yl)(imino)methyl)guanidino)phenethyl)-5-(2-oxohexahydro-1H-thieno[2,3-d]imidazol-5-yl)pentanamide] | < 4.00 | 
34 | CN1CCN(C(=N)NC(=N)Nc2ccc(Cl)c(OC(F)(F)F)c2)CC1 [Example 39, N1-4-methyl piperazine-N5-(4-chloro-3-trifluoromethoxy)phenyl biguanide] | 5.12 | 
35 | CC1CCCCN1C(=N)NC(=N)Nc1ccc(CCNC(=O)CCCCC2CC3NC(=O)NC3S2)cc1 (stereo not drawn) [Example 78, N-(4-(3-(imino(2-methylpiperidin-1-yl)methyl)guanidino)phenethyl)-5-(2-oxohexahydro-1H-thieno[2,3-d]imidazol-5-yl)pentanamide] | < 4.00 | 
36 | N=C(NC(=N)N1CCCC1)Nc1cccc(-c2ccc(F)cc2)c1 [Example 10, N1-pyrrolidine-N5-(4′-fluorobiphenyl-3-yl) biguanide] | 5.20 | 
37 | N=C(NC(=N)N1CCCC1)Nc1cccc(-c2ccccc2)c1 [Example 8, N1-pyrrolidine-N5-(N-biphenyl-3-yl) biguanide] | 5.16 | 
38 | N=C(NC(=N)N1CCCC1)Nc1ccc(-c2ccccc2)cc1 [Example 9, N1-pyrrolidine-N5-(N-biphenyl-4-yl) biguanide] | 5.13 | 
